Here are results for 6 compounds from ChEMBL document CHEMBL4715901, “Degradation of Signal Transducer and Activator of Transcription Proteins in Cancer Therapeutics” (ACS Med Chem Lett, 2021).

Assay [1] concerns the target Protein cereblon/Signal transducer and activator of transcription 3 (Homo sapiens, UniProt P40763+Q96SW2). Put plainly: Protac activity at E3 ubiquitin ligase/STAT3 in human MOLM-16 cells assessed as degradation of STAT3 incubated for 4 hrs by fluorescent immunoblotting analysis. It counts as cell-based.
Assay [2] deals with Protein cereblon/Signal transducer and activator of transcription 1-alpha/beta (Homo sapiens, UniProt P42224+Q96SW2). Briefly: Protac activity at E3 ubiquitin ligase/STAT1 in human MOLM-16 cells assessed as degradation of STAT1 incubated for 4 hrs by fluorescent immunoblotting analysis. In kind it is cell-based.
Protein cereblon/Signal transducer and activator of transcription 1-alpha/beta, sequence (P42224 whole entry): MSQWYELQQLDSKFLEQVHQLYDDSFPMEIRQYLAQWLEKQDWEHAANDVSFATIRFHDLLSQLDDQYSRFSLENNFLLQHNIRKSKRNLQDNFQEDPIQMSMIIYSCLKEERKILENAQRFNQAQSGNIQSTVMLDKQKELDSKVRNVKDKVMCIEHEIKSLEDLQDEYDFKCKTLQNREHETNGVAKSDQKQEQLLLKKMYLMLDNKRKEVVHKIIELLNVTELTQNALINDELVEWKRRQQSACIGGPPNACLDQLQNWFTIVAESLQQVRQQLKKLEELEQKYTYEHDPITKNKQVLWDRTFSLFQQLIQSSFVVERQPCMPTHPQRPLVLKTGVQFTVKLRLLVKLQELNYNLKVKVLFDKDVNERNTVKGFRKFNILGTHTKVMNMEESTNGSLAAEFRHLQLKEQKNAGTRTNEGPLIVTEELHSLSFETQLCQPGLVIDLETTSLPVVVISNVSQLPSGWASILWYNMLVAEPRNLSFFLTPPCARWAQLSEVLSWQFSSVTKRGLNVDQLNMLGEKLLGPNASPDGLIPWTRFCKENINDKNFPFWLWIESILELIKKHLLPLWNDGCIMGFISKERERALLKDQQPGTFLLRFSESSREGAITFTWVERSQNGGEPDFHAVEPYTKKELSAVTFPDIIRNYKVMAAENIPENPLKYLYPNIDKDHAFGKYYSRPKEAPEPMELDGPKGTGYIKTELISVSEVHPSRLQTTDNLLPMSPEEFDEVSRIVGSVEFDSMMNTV
Protein cereblon/Signal transducer and activator of transcription 1-alpha/beta, sequence (Q96SW2 whole entry): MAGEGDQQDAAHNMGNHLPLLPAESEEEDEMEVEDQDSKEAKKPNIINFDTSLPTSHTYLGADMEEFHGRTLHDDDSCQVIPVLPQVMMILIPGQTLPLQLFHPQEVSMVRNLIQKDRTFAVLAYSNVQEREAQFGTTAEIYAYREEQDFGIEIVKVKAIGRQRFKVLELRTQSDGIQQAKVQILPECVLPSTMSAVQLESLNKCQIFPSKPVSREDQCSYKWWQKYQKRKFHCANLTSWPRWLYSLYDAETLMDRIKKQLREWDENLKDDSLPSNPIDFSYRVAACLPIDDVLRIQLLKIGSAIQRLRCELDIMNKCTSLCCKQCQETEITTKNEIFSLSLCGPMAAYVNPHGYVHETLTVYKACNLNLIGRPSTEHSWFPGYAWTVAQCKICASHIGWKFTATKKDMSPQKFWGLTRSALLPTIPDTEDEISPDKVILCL

A value given as a limit tells only on which side of the number the result lay.

Protein cereblon/Signal transducer and activator of transcription 3, sequence (P40763 whole entry): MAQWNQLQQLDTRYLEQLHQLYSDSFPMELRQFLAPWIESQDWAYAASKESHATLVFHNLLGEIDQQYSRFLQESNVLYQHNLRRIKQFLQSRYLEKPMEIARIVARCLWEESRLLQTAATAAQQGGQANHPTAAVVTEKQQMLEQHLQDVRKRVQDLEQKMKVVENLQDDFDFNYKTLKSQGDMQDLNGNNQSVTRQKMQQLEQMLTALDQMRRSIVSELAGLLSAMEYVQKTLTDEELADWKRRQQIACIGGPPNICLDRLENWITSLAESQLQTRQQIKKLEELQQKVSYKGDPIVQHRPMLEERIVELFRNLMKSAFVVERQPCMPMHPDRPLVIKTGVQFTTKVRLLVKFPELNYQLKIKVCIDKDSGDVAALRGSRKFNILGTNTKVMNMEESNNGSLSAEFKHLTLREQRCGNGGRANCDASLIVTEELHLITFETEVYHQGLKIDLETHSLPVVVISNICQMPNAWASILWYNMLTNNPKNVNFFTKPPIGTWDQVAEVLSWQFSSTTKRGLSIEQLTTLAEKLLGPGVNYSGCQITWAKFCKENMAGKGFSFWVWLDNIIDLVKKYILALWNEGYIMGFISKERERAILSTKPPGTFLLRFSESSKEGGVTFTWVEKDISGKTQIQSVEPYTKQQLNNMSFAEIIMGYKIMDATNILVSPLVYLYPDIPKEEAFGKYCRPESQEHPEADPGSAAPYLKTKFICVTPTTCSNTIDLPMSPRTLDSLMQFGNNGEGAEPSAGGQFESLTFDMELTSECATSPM
Protein cereblon/Signal transducer and activator of transcription 3, sequence (Q96SW2 whole entry): as the sequence (Q96SW2 whole entry) above

For `CCN1CC[C@H]2CC[C@@H](C(=O)N[C@@H](CCC(N)=O)C(=O)N[C@@H](Cc3ccc(NS(=O)(=O)c4ccc(C)cc4)cc3)C(=O)N3CCC(CCC#Cc4cccc5c4CN(C4CCC(=O)NC4=O)C5=O)CC3)N2C(=O)[C@@H](NC(=O)c2cc3cc(C(F)(F)P(=O)(O)O)ccc3s2)C1` (some centres not stated), the DC50 (usually the concentration at which degradation of the target reaches its halfway point) in assay [1] is below 250 nM; in assay [2], 250 nM.
For `CC(C)(C)c1ccc(C[C@H](NC(=O)[C@H](CCC(N)=O)NC(=O)[C@@H]2CC[C@@H]3CCN(CC(F)F)C[C@H](NC(=O)c4cc5cc(C(F)(F)P(=O)(O)O)ccc5s4)C(=O)N32)C(=O)N2CCC(CCC#Cc3cccc4c3CN(C3CCC(=O)NC3=O)C4=O)CC2)cc1` (some centres not stated) the same measures were below 250 nM and below 250 nM.
For `CCN1CC[C@H]2CC[C@@H](C(=O)N[C@@H](CNC(N)=O)C(=O)N[C@@H](Cc3ccc(C(C)(C)C)cc3)C(=O)N3CCC(CCC#Cc4cccc5c4CN(C4CCC(=O)NC4=O)C5=O)CC3)N2C(=O)[C@@H](NC(=O)c2cc3cc(C(F)(F)P(=O)(O)O)ccc3s2)C1` (some centres not stated) the same measures were below 250 nM and above 1000 nM.
On the same counts, the results for `CCN1CC[C@H]2CC[C@@H](C(=O)N[C@@H](CCC(N)=O)C(=O)N[C@@H](Cc3ccc(S(=O)(=O)C4CC4)cc3)C(=O)N3CCC(CCC#Cc4cccc5c4CN(C4CCC(=O)NC4=O)C5=O)CC3)N2C(=O)[C@@H](NC(=O)c2cc3cc(C(F)(F)P(=O)(O)O)ccc3s2)C1` (some centres not stated) are below 250 nM and 500 nM.
Take `CCN1CC[C@H]2CC[C@@H](C(=O)N[C@@H](CCC(N)=O)C(=O)N[C@@H](Cc3ccc(S(=O)(=O)c4ccccc4)cc3)C(=O)N3CCC(CCC#Cc4cccc5c4CN(C4CCC(=O)NC4=O)C5=O)CC3)N2C(=O)[C@@H](NC(=O)c2cc3cc(C(F)(F)P(=O)(O)O)ccc3s2)C1` (some centres not stated): the values for the DC50 in assay [1] and in assay [2] were below 250 nM and 250 nM, respectively.
As for `COC(=O)N1CC[C@H]2CC[C@@H](C(=O)N[C@@H](CCC(N)=O)C(=O)N[C@@H](Cc3ccc(C(C)(C)C)cc3)C(=O)N3CCC(CCC#Cc4cccc5c4CN(C4CCC(=O)NC4=O)C5=O)CC3)N2C(=O)[C@@H](NC(=O)c2cc3cc(C(F)(F)P(=O)(O)O)ccc3s2)C1` (some centres not stated), the DC50 in assay [1] was below 250 nM; in assay [2], 250 nM.
